# Test system: Escherichia coli (ATCC25922) or Staphylococcus aureus (ATCC25923)
# Test: Antibacterial MIC, microdilution method in Mueller-Hinton medium
# Type: cell-based
# Conditions: Escherichia coli, 18 h, MIC in E. coli or S. aureus; two-fold serial dilutions 64 to 0.5 μg/ml in duplicate; 18 hours of incubation at 35° C.; read-out: Potency (MIC)
# Summary of the method: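 Read after 18 h incubation at 35° C, MIC is the lowest compound level that blocked growth. Compounds were tested in duplicate over 64–0.5 μg/ml two-fold dilutions using Mueller-Hinton microdilution per NCCLS standard.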
row,SMILES,MIC [µg/mL]
1,"Cl.Nc1ccc(S(=O)(=O)Nc2ccc(Nc3nc(N4CCCCC4)nc(N4CCCCC4)n3)cc2O)cc1 [N-[4-(4-amino-benzenesulfonylamino)-3-hydroxy-phenyl]-4,6-Bis-((3R,5S)-33,5-diamino-piperidin-1-yl)-[1,3,5]triazine-2-amine]",< 64
2,"COc1cc(Nc2nc(N3CCCCC3)nc(N3CCCCC3)n2)ccc1NC(=O)c1ccc(Cl)cc1O.Cl [N-[4-(4-chlorro-2-hydroxy-benzoylamino)-3-methoxy-phenyl]-4,6-Bis-((3R,5S)-3,5-diamino-piperidin-1-yl)-[1,3,5]triazine-2-amine]",< 16

# Same assay, conditions: Escherichia coli, 18 h, read-out: Potency (MIC)
row,SMILES,MIC [µg/mL]
1,"Cc1nc(NS(=O)(=O)c2ccc(Nc3nc(N4C[C@H](N)C[C@H](N)C4)nc(N4C[C@H](N)C[C@H](N)C4)n3)cc2)oc1C [N-[4-(4,5-dimethyl-oxazol-2-ylsulfamoyl)-phenyl]-4,6-Bis-((3R,5S)-3,5-diamino-piperidin-1-yl)-[1,3,5]triazin-2-amine]",> 64
2,"NC(=O)c1ccc(NC(=O)c2ccc(Nc3nc(N4C[C@H](N)C[C@H](N)C4)nc(N4C[C@H](N)C[C@H](N)C4)n3)cc2O)cc1 [N-[4-(4-carbamoyl-phenylcarbamoyl)-3-hydroxy-phenyl]-4,6-Bis-((3R,5S)-3,5-diamino-piperidin-1-yl)-[1,3,5]triazine-2-amine]",> 64
3,"N[C@@H]1C[C@H](N)CN(c2nc(Nc3ccc(NC(=O)c4ccc(Cl)cc4O)c(F)c3)nc(N3C[C@H](N)C[C@H](N)C3)n2)C1 [N-[4-(4-chloro-2-hydroxy-benzoylamino)-3-fluoro-phenyl]-4,6-Bis-((3R,5S)-3,5-diamino-piperidin-1-yl)-[1,3,5]triazine-2-amine]",< 16
4,"N[C@@H]1C[C@H](N)CN(c2nc(Nc3ccc(NC(=O)c4ccc(Cl)cc4O)c(O)c3)nc(N3C[C@H](N)C[C@H](N)C3)n2)C1 [N-[4-(4-chloro-2-hydroxy-benzoylamino)-3-hydroxy-phenyl]-4,6-Bis-((3R,5S)-3,5-diamino-piperidin-1-yl)-[1,3,5]triazine-2-amine]",< 16
5,"Cc1cc(Nc2nc(N3C[C@H](N)C[C@H](N)C3)nc(N3C[C@H](N)C[C@H](N)C3)n2)ccc1NC(=O)c1ccc(Cl)cc1O [N-[4-(4-chloro-2-hydroxy-benzoylamino)-3-methyl-phenyl]-4,6-Bis-((3R,5S)-3,5-diamino-piperidin-1-yl)-[1,3,5]triazine-2-amine]",< 16
6,"N[C@@H]1C[C@H](N)CN(c2nc(Nc3ccc(NC(=O)c4ccc(Cl)cc4O)c(C(=O)Nc4ccccc4)c3)nc(N3C[C@H](N)C[C@H](N)C3)n2)C1 [N-[4-(4-chloro-2-hydroxy-benzoylamino)-3-phenylcarbamoyl-phenyl]-4,6-Bis-((3R,5S)-3,5-diamino-piperidin-1-yl)-[1,3,5]triazine-2-amine]",< 16
7,"N[C@@H]1C[C@H](N)CN(c2nc(Nc3ccc(NC(=O)c4ccc(Cl)cc4O)c(C(F)(F)F)c3)nc(N3C[C@H](N)C[C@H](N)C3)n2)C1 [N-[4-(4-chloro-2-hydroxy-benzoylamino)-3-trifluoromethyl-phenyl]-4,6-Bis-((3R,5S)-3,5-diamino-piperidin-1-yl)-[1,3,5]triazine-2-amine]",< 16
8,"N[C@@H]1C[C@H](N)CN(c2nc(Nc3ccc(NC(=O)c4ccc(Cl)cc4O)cc3)nc(N3C[C@H](N)C[C@H](N)C3)n2)C1 [N-[4-(4-chloro-2-hydroxy-benzoylamino)-phenyl]-4,6-Bis-((3R,5S)-3,5-diamino-piperidin-1-yl)-[1,3,5]triazine-2-amine]",< 16
9,"N[C@@H]1C[C@H](N)CN(c2nc(Nc3ccc(NC(=O)c4ccc(Cl)cc4)c(O)c3)nc(N3C[C@H](N)C[C@H](N)C3)n2)C1 [N-[4-(4-chloro-benzoylamino)-3-hydroxy-phenyl]-4,6-Bis-((3R,5S)-3,5-diamino-piperidin-1-yl)-[1,3,5]triazine-2-amine]",< 16
10,"N[C@@H]1C[C@H](N)CN(c2nc(Nc3ccc(C(=O)Nc4ccc(Cl)cc4)c(O)c3)nc(N3C[C@H](N)C[C@H](N)C3)n2)C1 [N-[4-(4-chloro-phenylcarbamoyl)-3-hydroxy-phenyl]-4,6-Bis-((3R,5S)-3,5-diamino-piperidin-1-yl)-[1,3,5]triazine-2-amine]",< 64

# Reference: patent US7223759B2, “Antibacterial 3,5-diaminopiperidine-substituted aromatic and heteroaromatic compounds” (Anadys Pharmaceuticals, Inc., priority 2003, dated 2007)
